Data: publication PMC10571957, “αV-Integrin-Dependent Inhibition of Glioblastoma Cell Migration, Invasion and Vasculogenic Mimicry by the uPAcyclin Decapeptide” (Cancers, 2023)

Experiments:
[1] = system: HT1080 fibrosarcoma cells; details: cited from earlier work
From the text: Thus, in the present work, we investigated the effects of the anti-migratory uPAcyclin decapeptide, binding to the αV integrin subunit. This cyclic decapeptide is derived from a non-catalytic region of the human urokinase (uPA) plasminogen activator. The growth factor domain (GFD, residues 1-49) and the connecting peptide region (CP, residues 132-158) confer to the full uPA a clearcut motogen activity. While the GFD binds to the urokinase receptor (uPAR), the CP region binds to the αV integrin subunit. […] The primary sequence of this cyclic peptide, derived from the connecting peptide region (CP) of the serin protease urokinase (uPA), is reported in Figure 1A. As assessed by a previous conformational analysis of uPAcyclin performed in water solution, about half of the peptide molecules ...

U251-MG cells = test: Cell viability/proliferation (Trypan blue), U251-MG; format: cell-based, human; details: 1 nM or 100 nM, 72–96 h
Method: Cell viability was tested in DMEM/10% FBS, in the presence of 1 nM or 100 nM uPAcyclin, either by Trypan blue exclusion or by thiazolyl blue tetrazolium bromide (MTT) assays, as specified in the figure legends. For the Trypan blue assay, 4 × 10^4 U87-MG, U251-MG, U138-MG, and C6 cells/sample were grown in 12-well plates, and followed for 24, 48 and 72 h. As a negative control, the cells were grown in a serum-free medium. Then, the cells were detached, stained with a 0.2% (w/v) Trypan blue solution, counted using a Burker chamber (T0 = 100%), and reported as number of viable cells/total.

U87-MG cells = test: Wound healing assay, U87-MG; format: cell-based, human; details: for residual space, % of the initial wound: 24 h (untreated 15%)
Method: (§1) The wound healing assay or scratch test was performed as previously reported. Briefly, 6 × 10^3 U87-MG cells were seeded in multiwell-12 plates containing culture inserts for live cell analysis (Ibidi, Gmbh, Martinsried, Germany) and grown to confluence in DMEM/10% FBS for 24 h. After removing the inserts, the cells were pre-treated for 40 min at 37 °C with uPAcyclin or diluents at the indicated concentrations, and then incubated in DMEM/3% FBS for 24 h. The images were taken using the Inverted Microscope Leica DMI6000 DFC 402 (Leica Microsystems, Milan, Italy). A total of 10 × 10^4 C6 cells were grown to confluence in 12-well plates, in the presence of DMEM/10% FBS. Then, the cell monolayers were wounded with a yellow tip, pre-incubated with uPAcyclin (10 pM and 100 nM) or diluents, and incubated in DMEM/2.5% FBS for 16 h. The images were obtained using the Inverted Axiovert 25 Microscope, equipped with the Zen 3.3 Software. To quantitate cell migration, a rectangle covering the wound edges is drawn on the T0 image and is further applied to the single photograms of each sample. The average margin distance is measured at three points and the results are expressed as percentage wound width of the T0 distance, taken as 100%.
Figure 5 Wound healing assay of U87-MG and C6 cells, in the presence of uPAcyclin. (A) U87-MG cells were grown to confluence in multiwell-12 plates with inserts, pre-incubated with uPAcyclin (10 pM or 100 nM) or diluents for 40 min at 37 °C, and then exposed to 3% FBS, in the presence of uPAcyclin or diluents, as reported. Images were taken at time 0 (T0) and 24 h (T24) and representative images are shown (50× total magnification, scale bar: 250 µm). […] (C) For both U87-MG and C6, the wound width at time 0 is taken as 100% and the wound width at T24 or T16 is calculated as relative to that (* p-value < 0.05; ** p-value < 0.005; *** p-value < 0.001).

C6 cells [2] = test: Vasculogenic mimicry (tube formation on Geltrex), C6; format: cell-based, rat; details: C6, 16 h
Method: The tube formation assay was performed in 96-well plates pre-coated with 50 µL/well of Geltrex^TM (Thermofisher, Scientific, Waltham, MA, USA), and polymerized for 30 min at 37 °C. Briefly, 3 × 10^4 U87-MG, 1.5 × 10^4 U251, and 1 × 10^4 C6 cells/100µL/well were plated onto Geltrex^TM and monitored at 37 °C for the indicated times. The specific effectors were included at time 0. The formation of vascular-like structures by Geltrex^TM-plated U87-MG and U251-MG cells was monitored for 24 h, whereas C6 cells were tested for 16 h. The evaluation of the branching point number, defined as the intersection of at least 3 tubes [24], was performed using the Inverted Microscope DMI Leica 6000 for the U87-MG and U251-MG cells and the Inverted Microscope Axiovert 25 for the C6 cells. At the indicated times, the number of “branching points” was assessed in 4/5 random fields using the ImageJ 1.52a Software.
Figure 7 Vascular mimicry formation by C6 rat cells and inhibition by uPAcyclin. […] (B) After 16 h, the number of branching points was evaluated as described in the legend to Figure 5 and reported in the relative histogram (*** p-value < 0.001).

C6 cells [3] = test: Wound healing assay, C6; format: cell-based, rat
Method: as §1, with “Then, the cell monolayers were wounded with a yellow tip, pre-incubated with uPAcyclin (10 pM and 100 nM) or diluents, and incubated in DMEM/2.5% FBS for 16 h. The images were obtained using the Inverted Axiovert 25 Microscope, equipped with the Zen 3.3 Software.” left out
Figure 5 Wound healing assay of U87-MG and C6 cells, in the presence of uPAcyclin. […] (C) For both U87-MG and C6, the wound width at time 0 is taken as 100% and the wound width at T24 or T16 is calculated as relative to that (* p-value < 0.05; ** p-value < 0.005; *** p-value < 0.001).

Ac-K^1P[ESPPEELK^10]-NH2 (sidechain bridge or staple) [uPAcyclin]
lung metastases ([1]; mice injected with HT1080 fibrosarcoma cells, ref [29]): prevent lung metastases
metastatic lung spreading ([1]; nude mice, ref [25]): markedly inhibits metastatic lung spreading in nude mice
proliferation/viability (U251-MG cells): unaffected by uPAcyclin, regardless of the concentration employed
residual space, % of the initial wound (U87-MG cells; 10 pM): 30%
residual space, % of the initial wound (U87-MG cells; 100 nM): 60%
reduction of wound healing rate closure (U87-MG cells; abstract): 50%
inhibition of branching point number (C6 cells [2]; 10 pM): 40%
inhibition of branching point number (C6 cells [2]; 100 nM): 60%
wound closure, in words (C6 cells [3]; 10 pM or 100 nM, C6, 16 h): dose-dependent inhibition of wound closure
reduction of wound healing rate closure (C6 cells [3]; C6, abstract): 50%
